Data published in patent US6548505B1, “Radioprotectors” (Peter MacCallum Cancer Institute, priority 1995, dated 2003).
Several values for one entry are separate records, joined by “and”; a condition that tells them apart may be missing. Equal values may be shown once.

How the values were obtained:
V79 cells [1] = assay: Radioprotection, clonogenic survival of irradiated V79 cells; format: cell-based; details: for DMF: survival curves FIG. 3; for Protector plus irradiation (12 Gy), survival fraction relative to untreated control cells / Protection Factor: 12 Gy; for Protection Factor: ratio of survival fractions with and without protector
Protocol: (§1) Monolayers of V79 cells were maintained in 25 cm^2 Falcon plastic flasks in alpha-MEM medium with 10% foetal calf serum (FCS). Log phase cultures were treated by adding the required amount of Hoechst 33258, Hoechst 33342 or para dimethylamino Hoechst (25-500 nmoles) dissolved in 50 μL 10 μM acetic acid in 50% methanol. The flasks were inverted immediately prior to adding the compound to ensure complete mixing of the compound with the medium, before contact with the monolayer.
(§2) After 2 hours incubation at 37° C., the cells were harvested and assayed for clonogenic survival. […] All clonogenic survival results are expressed relative to the untreated controls.
Cultures were irradiated in a 137Cs Gammacell-40 (Atomic Energy of Canada Ltd.) at a dose rate of 0.84 Gy/min. Ligand-treated cells were irradiated two hours after starting the exposure to the ligand. In all cases, the clonogenic survival was delayed until one hour after completion of irradiation.
(§3) Hoechst 33258, Hoechst 33342 or para dimethylamino Hoechst was added to the media of monolayers of V79 cells, to the indicated final concentrations. […] All cultures were held for a further one hour prior to plating for clonogenic survival.
Mono layer cultures of V79 cells were exposed to various concentrations of the three radioprotectors, as described in (a) above. After two hours, the cells were chilled and kept cold during the isolation of nuclei, using 0.08% w.v Triton X-100. After counting an aliquot of the nuclear suspension, the ligands were extracted and quantitated by spectrophotometry and the nuclear content calculated. The survival results shown in the lower part of FIG. 1 were replotted using the nuclear uptake data and the results are shown in FIG. 2.
The first three columns show survival fraction relative to that for untreated control cells. Each row represents a separate experiment and the figures are the means of duplicates. The figures in square brackets is the mean of a number of the results of a number of experiments done over the relevant period. The protection factor is the ratio of survival fractions for irradiated cells, with and without protector.
A number of bibenzimidazoles represented by formula (I) have been synthesised and assayed for radioprotective activity in cell culture. Assays were conducted using V79 fibroblasts and involved exposure of the cells to a single radiation dose (12Gy) and comparison of the clonogenic survival with and without the inclusion of the protector in the cell culture medium. The ratio of the survival fractions (with protector/without), designated the protection ratio (PR12Gy), provides a measure of the extent of radioprotection. The experimental protocol adopted was as in Example 12.

pig skin = assay: Pig skin studies, topical radioprotector cream; format: in vivo; details: cream 0.15 g/field
Excerpt: The pig skin model is described by J. W. Hopewell^4. The structural similarities between human and pig skin underlie the relevance of the model.
Although some pig skin studies involve external beam irradiation, a particularly convenient radiation source is discs containing β-emitting isotopes, typically ^90Sr. The sources can be held to the skin, or for higher doses, taped to the animal, for appropriate periods of time to deliver the required dose. The discs are typically about 2 cm in diameter so that an array of different doses can be arranged on the flanks of a single animal.
The “acute” reactions (3-9 weeks after irradiation) result from radiation damage to the basal cells of the epidermis, and are manifest as erythema, and dry and moist desquamation. The “late” reactions (10-16 weeks) results from radiation effects to the dermal vascular connective tissue, characterized by a dusky mauve erythema and necrosis. The scoring system is well described.
The radioprotectors were formulated in a propylene glycol cream containing 10% DMSO. The extent and kinetics of penetration were followed by fluorescence microscopy of frozen skin sections, to enable optimization of delivery.
Radiation dose response curves were constructed for radiation only fields. The results of fields with radioprotector creams are shown in Table 3 below, with the respective cream (vehicle) only controls. The decrease in extent of skin reaction for the test fields is evident.

V79 cells [2] = assay: Cytotoxicity, clonogenic survival of V79 cells without irradiation
Protocol: as §1, §2, §3

mouse lung = assay: Mouse lung model, bilateral lung irradiation; format: in vivo; details: maximum breathing rate up to 24 weeks, FIG. 5
Excerpt: Irradiation of mouse lung, at appropriate doses, results in fatal loss of lung function. The onset of damage is signalled by an increase in breathing rate. The dose response and kinetics of loss of lung function following irradiation of both lungs varies between different mouse strains.
The procedures for irradiation and measurement of breathing rate were essentially as described by Travis et al^3. Groups of 5-6 male DBA/2J mice were anaesthetised and irradiated with 250 kV X-rays (single dose) using a jig that shielded all the body except for both lungs. A thin midline lead strip was used to shield spinal cord between the lungs.
At weekly intervals, from 4-6 weeks post-irradiation, the breathing rate was measured for each mouse. The mouse was held in a small chamber equipped with a microphone and the output analysed on a PC. The mean breathing rate was determined for each of 3 periods of 2 seconds and the average of these readings was recorded as the breathing rate. The recorded breathing rates for each group of mice were averaged and the standard error calculated.
All mice were monitored daily for signs of respiratory distress (hunched appearance, raised hair), with particular attention being paid to those mice showing elevated breathing rate.
The radioprotector (2 mg/25 g mouse) was administered 30 minutes prior to the single irradiation dose.

[3] = tested on: Chinese Hamster Ovary (CHO) fibroblasts; assay: Radioprotection survival curves of cultured CHO cells (FIG. 7, Table 5); format: cell-based; details: ratio of doses reducing survival to 10% of control
Excerpt: where S is the survival fraction at dose D Gy, and α and β are constants.
The fitted values of α and β were used to calculate the radiation doses (D0.1) corresponding to a survival fraction of 0.1. The ratio of the D0.1 values with and without protector, then provided the Dose Modification Factor (DMF) for each compound:
DMF=D0.1(with protector)/D0.1(without)

HT29 = assay: Radioprotection DMF in HT29 cells (Table 1); format: cell-based; details: HT29, 8.7 μM
[4] = tested on: mouse brain endothelial cells; assay: Protection of mouse brain endothelial cells; format: in vivo; details: 80 mg/kg i.v. 10 minutes prior to radiation, within 24 hours, FIG. 6
Protocol: Irradiation of rodent brain results in the loss of a subset of brain endothelial cells within 24 hours after irradiation.
Endothelial cell numbers were scored as described by Lyubimova et al. Each point represents the mean for 3-4 mice; 3 sections were scored for each animal, a total of 30 fields were scored for each section, and the figure indicates the average number of cells per field. The error bars indicate standard errors.

CHO = assay: Radioprotection DMF in CHO cells (Table 1, existing radioprotector); format: cell-based; details: 4 mM
[5] = V79 cells, no irradiation, clonogenic survival, FIG. 1

CN1CCN(c2ccc3[nH]c(-c4ccc5[nH]c(-c6ccc(N(C)C)cc6)nc5c4)nc3c2)CC1 [Compound 1, 4Dimethylamino-1-[5′-{5′″-(4′″-methylpiperazin-1′″-yl)benzimidazol-2″-yl]benzimidazol-2′-yl}benzene]
DMF (V79 cells [1]; V79, 84 μM): 1.7 | Protection ratio 12Gy, Exp 8 (V79 cells [1]; V79, 12Gy 137Cs-γ, 20 μM): 5.1 | Protection ratio 12Gy, Exp 8 (V79 cells [1]; V79, 12Gy 137Cs-γ, 40 μM): 7.7 | Protection ratio 12Gy, Exp 8 (V79 cells [1]; V79, 12Gy 137Cs-γ, 50 μM): 8.0 | radioprotective potency, survival after 12Gy in terms of nuclear content of the radioprotector (V79 cells [1]; V79 cells, 12Gy, uptake per 10^6 nuclei, FIG. 2): more potent radioprotector | Fields showing moist desquamation (10 weeks post-Irr.) # (pig skin; 36 Gy, 5000 μg/g): 4/7 | Fields showing moist desquamation (10 weeks post-Irr.) % (pig skin; 36 Gy, 5000 μg/g): 57% | concentration up to which there is no effect on survival (V79 cells [2]; [5]): up to 100 μM

CN(C)c1ccc(-c2nc3cc(-c4nc5cc(N6CCCCC6)ccc5[nH]4)ccc3[nH]2)cc1 [Compound 2, 4-Dimethylamino-1-{5′-[5″-(piperidin-1′″-yl)benzimidazol-2″-yl]benzimidazol-2′-yl}benzene]
Protector plus irradiation (12 Gy), survival fraction relative to untreated control cells (V79 cells [1]; 17 μM): 0.062 and 0.059 | Protection Factor (V79 cells [1]; 17 μM): 2.8 and 2.7 | Protector only (no irradiation), survival fraction relative to untreated control cells (V79 cells [2]; 17 μM): 0.89 and 0.81

Cc1cc(N(C)C)ccc1-c1nc2cc(-c3nc4cc(N5CCN(C)CC5)ccc4[nH]3)ccc2[nH]1 [Compound 5, ortho methyl para dimethylamino Hoechst]
Protector plus irradiation (12 Gy), survival fraction relative to untreated control cells (V79 cells [1]; 20 μM): 0.15 and 0.145 and 0.12 | Protection Factor (V79 cells [1]; 20 μM): 4.4 and 4.0 and 4.3 | DMF (V79 cells [1]; V79, 30 μM): 2.1 | Protection ratio 12Gy, Exp 5 (V79 cells [1]; V79, 12Gy 137Cs-γ, 30 μM): 17.4 | Protection ratio 12Gy, Exp 10 (V79 cells [1]; V79, 12Gy 137Cs-γ, 30 μM): 18.7 | DMF, maximum breathing rate (mouse lung): 1.4 | Fields showing moist desquamation (10 weeks post-Irr.) # (pig skin; 40 Gy, 5000 μg/g): 4/8 | Fields showing moist desquamation (10 weeks post-Irr.) % (pig skin; 40 Gy, 5000 μg/g): 50% | Fields showing moist desquamation (10 weeks post-Irr.) # (pig skin; 44 Gy, 5000 μg/g): 4/8 | Fields showing moist desquamation (10 weeks post-Irr.) % (pig skin; 44 Gy, 5000 μg/g): 50% | DMF ([3]; 30 μM): 1.66 | Protector only (no irradiation), survival fraction relative to untreated control cells (V79 cells [2]; 20 μM): 0.71 and 0.63 and 0.88

CCOc1ccc(-c2nc3cc(-c4nc5cc(N6CCN(C)CC6)ccc5[nH]4)ccc3[nH]2)c(C)c1 [Compound 6, 4-Ethoxy-2-methyl{5′-[5″(4′″-methylpiperazin-1′″-yl)benzimidazol-2″-yl]benzimidazol-2′-yl}benzene]
Protection ratio 12Gy, Exp 3 (V79 cells [1]; V79, 12Gy 137Cs-γ, 20 μM): 8.0

CCOc1ccc(-c2nc3cc(-c4nc5cc(N6CCN(C)CC6)ccc5[nH]4)ccc3[nH]2)c(C(C)C)c1 [Compound 7, 4-Ethoxy-2i-propyl-1-{5′-[5″-(4′″-methylpiperazin-1′″-yl)benzimidazol-2′-yl]benzimidazol-2′-yl}benzene]
Protection ratio 12Gy, Exp 4 (V79 cells [1]; V79, 12Gy 137Cs-γ, 20 μM): 10.8 | Protection ratio 12Gy, Exp 4 (V79 cells [1]; V79, 12Gy 137Cs-γ, 30 μM): 10.4 | Protection ratio 12Gy, Exp 5 (V79 cells [1]; V79, 12Gy 137Cs-γ, 30 μM): 11.3 | Protection ratio 12Gy, Exp 4 (V79 cells [1]; V79, 12Gy 137Cs-γ, 40 μM): 14.2 | Protection ratio 12Gy, Exp 5 (V79 cells [1]; V79, 12Gy 137Cs-γ, 40 μM): 13.2 | Protection ratio 12Gy, Exp 5 (V79 cells [1]; V79, 12Gy 137Cs-γ, 50 μM): 15.2 | DMF ([3]; 20 μM): 1.42

CN1CCN(c2ccc3[nH]c(-c4ccc5[nH]c(-c6cccc(N(C)C)c6)nc5c4)nc3c2)CC1 [Compound 9, 3-N,N-Dimethylamino-1-{5′-[5″-(4′″-methylpiperazin-1′″-yl)benzimidazol-2″-yl]benzimidazol-2′-yl}benzene]
Protection ratio 12Gy, Exp 6 (V79 cells [1]; V79, 12Gy 137Cs-γ, 20 μM): 3.6 | Protection ratio 12Gy, Exp 7 (V79 cells [1]; V79, 12Gy 137Cs-γ, 30 μM): 7.6 | Protection ratio 12Gy, Exp 7 (V79 cells [1]; V79, 12Gy 137Cs-γ, 40 μM): 7.2 | Protection ratio 12Gy, Exp 1 (V79 cells [1]; V79, 12Gy 137Cs-γ, 50 μM): 9.7 | Protection ratio 12Gy, Exp 2 (V79 cells [1]; V79, 12Gy 137Cs-γ, 50 μM): 9.5 | Protection ratio 12Gy, Exp 7 (V79 cells [1]; V79, 12Gy 137Cs-γ, 50 μM): 8.2

CCOc1ccc(-c2cc3ccc(-c4nc5cc(N6CCN(C)CC6)ccc5[nH]4)cc3[nH]2)cc1 [Compound 10, 4-Ethoxy-1-{6′-[5″-(4′″-methylpiperazin-1′″-yl)benzimidazol-2″-yl]indol-2′-yl}benzene]
Protection ratio 12Gy, Exp 9 (V79 cells [1]; V79, 12Gy 137Cs-γ, 20 μM): 1.5 | Protection ratio 12Gy, Exp 9 (V79 cells [1]; V79, 12Gy 137Cs-γ, 40 μM): 1.4

CCOc1ccc(-c2nc3ccc(-c4nc5ccc(N6CCN(C)CC6)cc5[nH]4)cc3[nH]2)cc1 [Hoechst 33342, 4-ethoxy-1-{5′[5′″-(4′″-methylpiperazin-1′″-yl)benzimidazol-2″-yl]benzimidazol-2′-yl}benzene, reference compound]
Protector plus irradiation (12 Gy), survival fraction relative to untreated control cells (V79 cells [1]; 21 μM): 0.05 and 0.06 and 0.051 | Protection Factor (V79 cells [1]; 21 μM): 2.3 and 2.7 | DMF (V79 cells [1]; V79, 21 μM): 1.3 | Protection ratio 12Gy, Exp 1 (V79 cells [1]; V79, 12Gy 137Cs-γ, 20 μM): 7.2 | Protection ratio 12Gy, Exp 4 (V79 cells [1]; V79, 12Gy 137Cs-γ, 20 μM): 11.8 | Protection ratio 12Gy, Exp 9 (V79 cells [1]; V79, 12Gy 137Cs-γ, 20 μM): 7.1 | Fields showing moist desquamation (10 weeks post-Irr.) # (pig skin; 36 Gy, 5000 μg/g): 3/7 | Fields showing moist desquamation (10 weeks post-Irr.) % (pig skin; 36 Gy, 5000 μg/g): 43% | Fields showing moist desquamation (10 weeks post-Irr.) # (pig skin; 40 Gy, 500 μg/g): 4/6 | Fields showing moist desquamation (10 weeks post-Irr.) % (pig skin; 40 Gy, 500 μg/g): 83% | DMF (HT29): 1.5 | loss of endothelial cells of mouse brain after irradiation [4]: protected | Protector only (no irradiation), survival fraction relative to untreated control cells (V79 cells [2]; 21 μM): 0.80 and 0.87 and 0.76 | concentration above which the protector becomes cytotoxic (V79 cells [2]; [5]): 20 to 30 µM

NCCCNCCS [WR1065]
DMF (CHO): 1.9

CN1CCN(c2ccc3[nH]c(-c4ccc5[nH]c(-c6ccc([N+](=O)[O-])cc6)nc5c4)nc3c2)CC1 [para nitro Hoechst, reference compound]
Protector plus irradiation (12 Gy), survival fraction relative to untreated control cells (V79 cells [1]; 20 μM): 0.011 | Protection Factor (V79 cells [1]; 20 μM): [0.5]* | Protector only (no irradiation), survival fraction relative to untreated control cells (V79 cells [2]; 20 μM): 0.89
